Data from patent US5753664A, “Heterocyclic compounds, their production and use” (Takeda Chemical Industries, Ltd., priority 1995, dated 1998).

Tests used:
[1] = system: human prostatic carcinoma cells PC-3; assay: Inhibitory action against the growth of subcutaneously implanted tumor (Test Example 2, subcutaneous dosing); type: in vivo, human; BALB/c nu/nu mouse; details: 80 mg/kg s.c., Mon/Wed/Fri for 3 weeks; for Tumor volume gain: 46th day after transplantation, mean ± SD; for T/C: 46th day, ratio of tumor volume gain treated/control
Experimental: Inhibitory action of the test compounds against the growth of subcutaneously implanted tumor
The human prostatic carcinoma cells PC-3, which are maintained in vitro, were harvested using 0.05% trypsin, washed with Ham's F12K medium containing 10% serum, and then suspended in PBS (phosphate-buffered saline) at a concentration of 3×10^7 cells/ml. The aliquot of 100 μl was transplanted into the right central flank region of a 7-week old, male BALB/c nu/nu mouse using a syringe with a 25 gauge needle. After the size of the resulting tumor mass was measured on the 25th day after the transplantation, the mice were divided into groups of five animals (the average tumor volume of each group was between […]), and then the treatment with test compounds was commenced. Tumor volume was calculated according to the formulation: tumor volume =0.5×(the longest diameter)×(the shortest diameter)^2 after two-dimensional measurement of the tumor mass by a caliper. The test compounds were suspended in 0.5% methylcellulose/physiological saline, and subcutaneously injected at a volume of 10 μl/g body weight.
Thereafter the test compounds were administered every Monday, Wednesday and Friday for 3 weeks. The inhibitory action was assessed on the 46th day after the transplanation by the ratio of tumor volume gain of treated groups to that of the control group(T/C %). The dosage of the test compounds was expressed as mg/kg/shot.

[2] = system: Prostate carcinoma cell line PC-3; assay: In vitro prostate carcinoma cell proliferation inhibition assay (MTT); type: cell-based, human; details: Homo sapiens, 72 h; PC-3, 3 days incubation, MTT; read-out: IC50 PC-3
Experimental: In vitro prostate carcinoma cell proliferation inhibition assay
Prostate carcinoma cell line PC-3 cells were suspended in Ham's F-12K medium (Flow Laboratories or Dainippon Pharmaceutical Co,. Ltd) supplemented with 10% fetal calf serum, and seeded in a 96-well microtiter plate (5000 cells/50 or 75 μl/well). The plate was then incubated in a 5% CO2 incubator at 37° C. On the following day, a 3-fold dilution series with the medium with serum of the test compound in N,N-dimethylformamide (DMF) (50 or 25 μl/well) were added (final volume […]) and the plate was incubated for another 3 days. Following addition of a thiazolyl-tetrazolium (MTT) solution, absorbance based on the viable cell number was determined "Tada et al., Journal of Immunological Methods, 93, 157 (1986)". With the estimated cell number in the control group to which the test compound solution was not added being taken as 100%, the percentage of the estimated cell number in each test group was determined and the concentration (IC50 value) of the test compound which was required for 50% inhibition of the estimated viable cell number in the control group was calculated.

[3] = system: human prostatic carcinoma cells PC-3; assay: Inhibitory action against the growth of subcutaneously implanted tumor (Test Example 3, oral dosing); type: in vivo, human; BALB/c nu/nu mouse; details: 75 mg/kg p.o., once a day for 3 weeks
Experimental: Inhibitory action of the test compound against the growth of subcutaneously implanted tumor
The human prostatic carcinoma cells PC-3, which are maintained in vitro, were harvested using 0.05% trypsin, washed with Ham's F12K medium containing 10% serum, and then suspended in PBS (phosphate-buffered saline) at a concentration of 3×10^7 cells/ml. The aliquot of 100 μl was transplanted into the right central flank region of a 7-week old, male BALB/c nu/nu mouse using a syringe with a 25 guage needle. After the size of the resulting tumor mass was measured on the 32nd day after the transplantation, the mice were divided into groups of five animals (the average tumor volume of each group was between 273 and 293 mm^3), and then the treatment with test compound was commenced. Tumor volume was calculated according to the formulation: tumor volume =0.5×(the longest diameter)×(the shortest diameter)2 after two-dimensional measurement of the tumor mass by a caliper. The test compound was suspended in 0.5% methylcellulose/physiological saline, and orally administered at a volume of 10 μl/g body weight. […] The inhibitory action was assessed on the 53rd day after the transplanation, the first day after the last administration, by the ratio of tumor volume gain of treated groups to that of the control group (T/C %). The dosage of the test compounds was expressed as mg/kg/shot.

| IC50 [2] | Structure (SMILES) | Tumor volume gain [1] | T/C [1] | Tumor volume gain ([3]; 53rd day after transplantation, mean ± SD) | T/C ([3]; 53rd day, ratio of tumor volume gain treated/control) |
| --- | --- | --- | --- | --- | --- |
|  | Cn1c(SCc2ccc(C(=O)c3ccc(Cl)cc3)cc2)nc2ccsc2c1=O [Example 7, 2-[4-(4-Chlorobenzoyl)benzyl]thio-3-methylthieno-[3,2-d]pyrimidin-4(3H)-one] | 445 ± 110 mm^3 | 49% |  |  |
| 1.9 nM | O=C(c1ccc(Cl)cc1)c1ccc(Cn2ccn3c(=O)c4c(nc23)CCCC4)cc1 [Example 189, 1-[4-(4-Chlorobenzoyl)benzyl]-6,7,8,9-tetrahydroimidazo[2,1-b]quinazolin-5(1H)-one] |  |  | 697 ± 199 mm^3 | 53% |
|  | Cc1cccc2nc(SCc3ccc(C(=O)c4ccc(Cl)cc4)cc3)n(C)c(=O)c12 [Example 42, 2-[4-(4-Chlorobenzoyl)benzylthio]-3,5-dimethyl-quinazolin-4-one] | 329 ± 252 mm^3 | 36% |  |  |
